Measured values as given in patent US10501413B2, “Inhibitors of the Notch transcriptional activation complex and methods for use of the same” (UNIVERSITY OF MIAMI, priority 2015, dated 2019).

How the values were obtained:
[1] = target: T1, NICD1 (Homo sapiens, UniProt P46531); test: Surface plasmon resonance binding to immobilized NICD; details: SPR, equilibrium response fitted to 1:1 binding model
T1 construct: the intracellular domain of Notch (“NICD”)
Protocol: (§1) The inhibitors described herein were subjected to surface plasmon resonance (“SPR”) to determine their binding constants to the NICD and CSL components of the NTC. In particular, the target protein (NICD1) was immobilized on the dextran surface of the SPR sensor chip. Through a microflow system, a solution with the inhibitor was injected over the immobilized protein layer. The inhibitor bound to the immobilized protein, which led to an increase in SPR signal, indicating association of the ligand to the target protein. After 45 seconds, buffer solution was injected on the microfluidics that dissociated the bound complex between the ligand and the inhibitor. As the inhibitor dissociated from the ligand, a decrease in SPR signal was observed. The equilibrium dissociation constant KD was determined by plotting the equilibrium response (Req) as a function of the concentration of the ligand, and fitting the data to a 1:1 binding model. The results are listed in […].

[2] = target: CSL (Homo sapiens, UniProt Q06330); test: Surface plasmon resonance binding to CSL; details: SPR, equilibrium response fitted to 1:1 binding model
Protocol: as §1

[3] = target: T2, Notch transcriptional activation complex (CSL, Notch1, MAML1 on DNA) (Homo sapiens, UniProt P46531+Q06330); test: Notch complex assembly assay (ALPHASCREEN); type: biochemical
T2 construct: the intracellular domain of Notch (“NICD”); made in house; host or cells: SF21 insect cells (baculovirus)
Source text: An in vitro assay was developed to monitor the assembly of the Notch transcriptional complex (“NTC”) on DNA. The NTC, which includes the Notch, Mastermind (“MAML1”), and CSL proteins, binds to a specific DNA sequence in a CSL-dependent manner. For the assay, baculovirus produced CSL, Notch, and MAML1 were mixed together with a biotinylated DNA oligomer containing the CSL target sequence. Assembly of the NTC on DNA was then monitored with the proximity-based ALPHASCREEN (Perkin Elmer) using streptavidin and protein A beads (FIGS. 1A and 1B). A signal results when MAML1 is recruited to CSL bound DNA.
All recombinant proteins were expressed using baculovirus expression vectors in SF21 cells and purified. Unless otherwise stated, all assays contained 125 fmol of double stranded oligonucleotide, CSL, Notch1 and MAML1 proteins. Reactions were carried out in Tris-buffered saline with 0.1% Tween (“TBS-T”) buffer containing 0.2% bovine serum albumin (“BSA”) and 100 ug/mL salmon sperm DNA. Briefly, the Notch complex was assembled on a biotinylated double stranded (“DS”) oligonucleotide harboring one CSL binding site (5′-[…]-3′). Complex assembly was quantitated using ALPHASCREEN technology (Perkin Elmer). Proteins in the complexes were detected using specific antibodies to either MAML1 (Cell signaling, D3K7B), Notch1 (Abcam, 52627) or CSL (anti-His, Abcam 18184). Streptavidin conjugated acceptor beads (Perkin Elmer, 6760002) were used to bind the DS oligonucleotide, and Protein-A conjugated donor beads (Perkin Elmer, 6760137) were used to detect antibody-coated proteins. For screening compounds, Notch transcriptional activation complex (“NTC”) components were added to wells that already contained the inhibitor to be assayed and allowed to incubate for 30 minutes. The ALPHASCREEN plate (Perkin Elmer, 6008350) was then read on an Envision Plate reader (Perkin Elmer) as specified by the manufacturer.
Determination of Equilibrium Dissociation Constants (KD) and Half Maximal Inhibitory Concentrations (IC50)

[4] = system: Notch target gene transcription; test: RT-qPCR of Notch target genes in cancer cell lines; type: cell-based, human
Protocol: (§2) The effect of inhibitor treatment on Notch-target gene transcription also was investigated (FIGS. 2C and 2D). […] As proof of specificity, transcription of the housekeeping gene, HPRT, was unaltered in treated cells. To test the effects of Notch inhibition on proliferation, a colony formation assay was performed.
(§3) To extend the analysis of tumor cell growth inhibition, several commonly used cancer cell lines were selected to test for sensitivity to Inhibitor No. 1-134-83 (FIGS. 3A and 3B). […] In this analysis, sensitivity to DAPT is taken to indicate specific inhibition of Notch activity. […] Cells that are refractory to DAPT were equally resistant to Inhibitor No. 1-134-83.
RT-PCR analysis was performed using TaqMan probes according to manufacturer's instructions. In particular, 80 ng of RNA equivalent was used per reaction. Gene expression was normalized to the TATA-binding protein (“TBP”) gene. As a control, hypoxanthine phosphoribosyltransferase 1 (“HPRT”) gene expression was also monitored.

[5] = system: NICD in OE33 and 786-0 cells; test: Western analysis of NICD levels; type: cell-based, human; details: OE33 and 786-0 cell lysates
Protocol: (§4) The effect of inhibitor treatment on the assembly of the NTC in cells was investigated.
Protein analysis was carried out using conventional SDS-PAGE and transfer techniques. Blots were probed with the indicated antibody (“Ab”), using standard conditions, and detected using enhanced chemiluminescence (“ECL”). The following Ab were used: anti-Notch1 (ab52627, abcam), anti-Notch1^val1744 (4147S, Cell Signaling Technology) and anti-GAPDH (ab9483, Abcam).

[6] = system: MAML1 and Notch1 occupancy on HES1 promoter in OE33 and 786-0 cells; test: Chromatin immunoprecipitation (ChIP) on the HES1 locus; type: cell-based, human; details: 24 hours
Protocol: as §4
Cells (8×10^6 OE33 cells or 10×10^6 786-0 cells) were plated onto a 15 cm tissue culture dish a day prior to treatment. Cells were then treated for 24 hours with (N—[N-(3,5-difluorophenacetyl)-L-alanyl]-S-phenylglycine t-butyl ester (“DAPT”, 5 μM), Inhibitor No. 1-134-83 (25 μM), or DMSO vehicle. Following treatment, cells were cross-linked for 10 minutes with 1% formaldehyde. The reaction was then stopped by adding […] glycine. Cells were collected in SDS lysis buffer (1% SDS, 10 mM EDTA, 50 mM Tris-HCl pH 8.0) and sonicated to yield chromatin fragments of approximately 300 to 800 bp (8 minutes at high level for OE33 cells; 5 minutes at medium level for 786-0 cells in BIORUPTOR UCD-200 sonicator). Lysates were divided into equal parts and immunoprecipitated with either α-Notch1 (A301-894A, Bethyl Laboratories) or α-MAML1 (12166s, Cell Signaling Technology) antibody. Protein:DNA immunoprecipitates were then reverse cross-linked at 65° C. in 200 mM NaCl for 4 hours, followed by incubation with RNase A and proteinase K. DNA was then purified using a PCR purification kit (28104,
Qiagen). Immunoprecipitated DNA was then detected by SYBR green qPCR using HES1 specific oligonucleotide primers (forward: 5′CGTGTCTCCTCCTCCCATT3′; reverse: 5′GGGGGATTCCGCTGTTAT3′).

[7] = system: cancer cell lines (OE33, 786-0 and panel); test: Colony formation assay; type: cell-based, human; details: 7 days
Protocol: as §2, §3
Cells were plated into a 6 well plate at a density of 2000 cells/cm^2. Inhibitor treatment commenced 24 hours post seeding, and the media containing inhibitor was changed every 48 hours thereafter. After 168 hours, cells were fixed with ice cold methanol for 10 minutes, stained for 1 hour with crystal violet, de-stained with water, and allowed to dry.

[8] = system: esophageal adenocarcinoma PDX tumors; test: Esophageal adenocarcinoma patient-derived xenograft (PDX); type: in vivo, mouse; details: NSG mice, two PDX models, daily IP, 1-134-83 15 mg/kg, DAPT 20 mg/kg
Protocol: The effect of the inhibitors of the disclosure on the growth of an established tumor also was investigated using two independent esophageal adenocarcinoma patient-derived xenograft (“PDX”) models. Tumors were established in NSG mice to the size of 250 mm^3 prior to the initiation of treatment. Mice were dosed daily via intraperitoneal (“IP”) injection with either Inhibitor No. 1-134-83 (15 mg/kg) or DAPT (20 mg/kg), and compared to DMSO vehicle control. […] Following 24 days of treatment, tumors were harvested and Notch-target gene transcription was evaluated. […] (FIG. 4) Six-week-old NOD-SCID gamma (“NSG”) mice were purchased from Jackson Laboratories and CD-1 Nude mice were purchased from Charles River Laboratories. For the cell line based xenografts assay, 5×10^6 OE19 cells in 200 μl serum-free culture medium were injected subcutaneously per mouse. The mice in the treatment group were injected with 15 mg/kg of Inhibitor No. 1-134-83 daily, and the mice in the control group were injected with the same volume of vehicle (DMSO). Subcutaneous tumor growth was measured once every 4 days using calipers along with body weight. The experiment was discontinued on day 28. PDX cancer models were established, as described in Zhang et al, Establishment of Patient-Derived Xenograft (PDX) Models of Human Breast Cancer, Current Protocols in Mouse Biology, 3:21-29 (2013), in NSG mice. Briefly, 10 mm^3 pieces of primary EAC29 PDX tumor were transplanted subcutaneously into the flanks of NSG mice using a 13G telescopic needle. When the tumors reached 200 mm^3, the mice were split into two uniform groups for treatment. Compound 1-134-83 (15 mg/kg) and vehicle were administered daily by inraperitoneal (“IP”) injection for 24 days. Tumor growth was monitored every 4 days and tumor volume was measured by the formula: Volume=(S×S×L)/2, where S and L are the short and long dimensions. The xenograft tumors were harvested, weighed and samples were subjected to histological examination and by qPCR.

Chain of CSL (Q06330 whole entry): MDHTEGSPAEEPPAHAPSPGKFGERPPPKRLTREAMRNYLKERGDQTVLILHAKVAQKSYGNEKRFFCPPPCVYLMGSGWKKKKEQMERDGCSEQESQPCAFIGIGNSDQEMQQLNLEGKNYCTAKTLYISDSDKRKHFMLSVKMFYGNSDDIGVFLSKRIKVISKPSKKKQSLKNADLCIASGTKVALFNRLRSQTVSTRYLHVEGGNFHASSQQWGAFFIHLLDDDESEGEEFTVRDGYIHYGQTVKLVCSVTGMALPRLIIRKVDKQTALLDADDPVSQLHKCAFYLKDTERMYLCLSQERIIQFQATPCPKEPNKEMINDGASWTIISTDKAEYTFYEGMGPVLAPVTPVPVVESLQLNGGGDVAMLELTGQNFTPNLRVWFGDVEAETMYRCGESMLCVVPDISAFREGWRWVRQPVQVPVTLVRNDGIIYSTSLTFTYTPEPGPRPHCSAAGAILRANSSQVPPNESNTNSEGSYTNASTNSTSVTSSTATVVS
T2 sequence (P46531 1754-2555 limits assumed): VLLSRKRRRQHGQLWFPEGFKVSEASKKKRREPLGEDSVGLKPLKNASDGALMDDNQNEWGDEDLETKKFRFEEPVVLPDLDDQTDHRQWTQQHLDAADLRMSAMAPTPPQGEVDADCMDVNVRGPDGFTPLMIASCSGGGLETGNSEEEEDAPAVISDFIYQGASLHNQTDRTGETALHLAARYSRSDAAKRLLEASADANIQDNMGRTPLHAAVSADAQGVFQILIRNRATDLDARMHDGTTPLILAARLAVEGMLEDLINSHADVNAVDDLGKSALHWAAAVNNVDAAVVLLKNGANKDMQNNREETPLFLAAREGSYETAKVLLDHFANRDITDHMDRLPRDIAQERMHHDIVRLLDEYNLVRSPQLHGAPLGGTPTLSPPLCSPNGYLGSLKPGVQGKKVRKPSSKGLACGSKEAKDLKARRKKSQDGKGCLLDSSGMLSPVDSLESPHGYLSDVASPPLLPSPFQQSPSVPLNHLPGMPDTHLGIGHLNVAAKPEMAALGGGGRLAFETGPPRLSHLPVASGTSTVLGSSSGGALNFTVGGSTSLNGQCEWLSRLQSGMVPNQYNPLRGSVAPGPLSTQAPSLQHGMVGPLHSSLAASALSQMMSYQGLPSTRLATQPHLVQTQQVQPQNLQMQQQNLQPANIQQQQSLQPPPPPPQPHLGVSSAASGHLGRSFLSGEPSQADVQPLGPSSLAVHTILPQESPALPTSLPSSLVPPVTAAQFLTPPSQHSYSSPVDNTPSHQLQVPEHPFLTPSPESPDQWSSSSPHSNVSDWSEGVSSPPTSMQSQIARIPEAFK
T2 sequence (Q06330 whole entry, the tested form may be a part): as the sequence (Q06330 whole entry) above
T1 sequence (P46531 1754-2555 limits assumed): as the sequence (P46531 1754-2555 limits assumed) above

SMILES	Kd [1] [µM]	Kd [2] [µM]	IC50 [3] [nM]	also measured
COc1cc(/C=C2\SC(=S)NC2=O)ccc1OCC(=O)O [1-134-02]	2.9 ± 0.6	3.6 ± 0.9	500	–
C=CCc1cc(/C=C2\SC(=S)NC2=O)cc(OC)c1OCC(=O)O [1-134]	17 ± 5	15 ± 3	6000	–
C[C@H](NC(=O)Cc1cc(F)cc(F)c1)C(=O)N[C@H](C(=O)OC(C)(C)C)c1ccccc1 [DAPT, N—[N-(3,5-difluorophenacetyl)-L-alanyl]-S-phenylglycine t-butyl ester, reference compound]	–	–	–	Notch target gene transcription ([4]; OE33 and 786-0 cells, qPCR): significant decrease; transcription of control gene HPRT ([4]; OE33 and 786-0 cells, qPCR): not affected; Notch target gene transcription ([4]; insensitive cancer cell lines of the panel, 48 hrs): do not show a statistically significant reduction; Notch target gene transcription ([4]; sensitive cancer cell lines of the panel, 48 hrs, DAPT 10, 1-134-83 15 and 25 μM): significantly reduced; levels of NICD in cells [5]: decrease in the NICD pool; occupancy of MAML1 on the HES1 promoter [6]: decreased; occupancy of NOTCH1 on the HES1 promoter [6]: decreased; colony formation ([7]; 786-0 and OE33 cells): inhibited the cell colony forming ability of cells; colony formation ([7]; sensitive (Notch dependent) cell lines): decrease in colony formation; growth of established tumor [8]: stunted growth to a similar level achieved with DAPT treatment

Now from value to compound, other results behind:

Kd [1] [µM]	Kd [2] [µM]	IC50 [3] [nM]	SMILES	also measured
25 ± 4	3.4 ± 0.7	70	O=C(O)COc1ccccc1/C=C1\SC(=S)NC1=O [NADi-090]	–
5.7 ± 0.9	6.4 ± 0.7	500	COc1cccc(/C=C2\SC(=S)N(CC(=O)N(C)C)C2=O)c1O [NADi-203, (Z)-2-(5-(2-Hydroxy-3-methoxybenzylidene)-4-oxo-2-thioxothiazolidin-3-yl)-N,N-dimethylacetamide]	–
3.7 ± 0.8	13 ± 2	500	CN(C)C(=O)CN1C(=O)/C(=C/c2cc(F)ccc2O)SC1=S [NADi-239, (Z)-2-(5-(5-Fluoro-2-hydroxybenzylidene)-4-oxo-2-thioxothiazolidin-3-yl)-N,N-dimethylacetamide]	–
